Source: patent US9090651B2, “Helix 12 directed pharmaceutical products” (ENDORECHERCHE, INC., priority 2004, dated 2015)
Several values for one entry are separate records, joined by “and”; a condition that tells them apart may be missing. Identical values can stand only once. Like-named read-outs stand apart in the source and are kept apart here.

Key:
rat prostate = assay: Systemic antiandrogenic activity, orchidectomized immature male rats with DHT implant: prostate weight; type: in vivo; details: for inhibition in vivo at 0.5 mg: Rattus norvegicus, 168 h
Experimental: (§1) Immature male rats (Crl:CD(SD)Br) 22 to 24-day old were obtained from Charles-River, Inc. (St-Constant, Quebec, Canada) and housed up to 5 per cage in plastic bins in a temperature (23±1° C.)- and light (12 h light/day, lights on at 7 h15)-controlled environment. The rats were fed rodent chow and tap water ad libitum. The day following their arrival, the animals were orchidectomized (CX) under Isoflurane anesthesia via scrotal route and randomly assigned to groups of 5 animals.
(§2) Compounds were solubilized (when possible) in dimethylsulfoxide (DMSO, 10% final concentration) and administered as suspension in 0.4% methylcellulose. […] One group of animals received the antiandrogen Flutamide as reference. The animals were killed by cervical dislocation under isoflurane anesthesia on the 8th morning following castration. The ventral prostate and seminal vesicles were rapidly dissected and weighed.
(§3) W is the weight of the prostate or the seminal vesicle.

Human Androgen Receptor = biological target: T1, Human Androgen Receptor (Homo sapiens, UniProt P10275); assay: Androgen receptor binding assay (hydroxylapatite, [3H]R1881, cytosol of transfected HEK-293 cells); details: for RBA human: Table 4, relative to R1881; for Androgen Receptor Binding (%) Human RBA R1881 = 100: % RBA=100×IC50 R1881/IC50 compound, transfected cells
T1 sequence (P10275 1-920): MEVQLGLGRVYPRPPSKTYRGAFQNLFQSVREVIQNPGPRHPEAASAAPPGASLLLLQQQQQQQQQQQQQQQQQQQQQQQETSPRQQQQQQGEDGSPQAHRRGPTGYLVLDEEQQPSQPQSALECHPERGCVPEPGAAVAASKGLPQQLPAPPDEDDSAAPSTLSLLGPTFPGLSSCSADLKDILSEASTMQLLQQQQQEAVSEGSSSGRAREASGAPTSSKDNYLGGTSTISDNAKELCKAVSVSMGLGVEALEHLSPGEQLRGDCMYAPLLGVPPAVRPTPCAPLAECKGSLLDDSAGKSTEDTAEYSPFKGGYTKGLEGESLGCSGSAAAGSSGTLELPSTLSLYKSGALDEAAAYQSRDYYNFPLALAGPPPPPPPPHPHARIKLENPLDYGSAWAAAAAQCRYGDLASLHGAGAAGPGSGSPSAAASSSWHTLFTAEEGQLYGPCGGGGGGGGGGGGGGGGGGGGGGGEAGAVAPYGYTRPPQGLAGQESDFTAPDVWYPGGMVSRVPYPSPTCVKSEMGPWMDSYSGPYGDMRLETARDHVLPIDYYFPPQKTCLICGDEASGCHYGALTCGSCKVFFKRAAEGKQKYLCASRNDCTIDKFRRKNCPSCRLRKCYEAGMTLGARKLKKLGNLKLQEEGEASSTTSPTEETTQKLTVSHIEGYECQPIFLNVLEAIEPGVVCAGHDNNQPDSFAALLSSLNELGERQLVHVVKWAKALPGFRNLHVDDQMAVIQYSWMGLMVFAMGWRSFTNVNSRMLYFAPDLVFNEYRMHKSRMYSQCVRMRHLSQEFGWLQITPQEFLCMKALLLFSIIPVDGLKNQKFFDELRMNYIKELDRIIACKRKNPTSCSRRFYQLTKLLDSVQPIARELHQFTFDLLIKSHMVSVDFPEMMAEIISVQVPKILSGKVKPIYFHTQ

[1] = system: Shionogi mouse mammary carcinoma cells; assay: Androgenic/antiandrogenic activity on DHT-stimulated Shionogi cell growth; type: cell-based; details: for IC50: Mus musculus; for Shionogi VS OH-FLU: Table 4, ratio of Ki hydroxyflutamide versus tested compound
rat seminal vesicle = assay: Systemic antiandrogenic activity, orchidectomized immature male rats with DHT implant: seminal vesicle weight; type: in vivo; details: for inhibition in vivo at 0.5 mg: Rattus norvegicus, 168 h
Experimental: as §1, §2, §3

[2] = system: sebaceous glands of the left ear; assay: Topical antiandrogenic activity, ear sebaceous glands model in the male hamster; type: in vivo; details: Mesocricetus auratus, 336 h, topical on left pinna, read-out: Antiandrogenic activity in Hamster Ear Area Inh Vs Cx (%); for inhibition in vivo at 0.01 mg: 10 μg daily for 14 days; for inhibition in vivo at 0.1 mg: 100 μg daily for 14 days
Experimental: The antiandrogenic activity of compounds for topical use was determined using the ear sebaceous glands model in the male hamster.
Male Golden Syrian Hamsters (SYR) of 110-120 g were obtained from Harlan Sprague-Dawley (Madison, USA) and housed up to 2 per plastic cage in a temperature (22±3° C.) and light (12 h light/day, lights on at 7 h15)-controlled environment. The hamsters were fed with Certified Rodent Diet 5002 (pellet) and had access to tap water ad libitum. The animals were acclimatized for at least five days prior to beginning the study. Animals were randomly assigned to groups of eight hamsters. One group of hamsters were castrated under isoflurane-induced anesthesia on the day of dosing initiation (SD 1) and used as control group.
To evaluate the antiandrogenic activity, the tested compounds were applied topically on the inner part of the left ear, once daily, for 14 days. […] For animals of the castrated and intact control groups, one ten-μL vehicle was applied onto the left ear. No solution was applied on the right ear.
On Study Day 15, the hamsters were euthanized by cervical dislocation under isoflurane anesthesia. The left and right ears were collected attached together by the head skin, flat fixed on a paper and then immersed in 10% neutral buffered formalin. Punctures making a circular hole of 6 mm were made on the flat fixed ear in the region where the solution has been applied. These punch-made specimens were collected from each ear. Using a scalpel blade, the collected 6 mm round ear specimens were cut in the middle between the two cartilage ridges. The two equal parts of the ear round specimens were embedded in paraffin. After processing the tissue, the two parts were vertically embedded parallel to each other in such a way that the flat 6 mm area was facing out. From each paraffin block, one section (5 μm thick) was cut and collected on a glass slide. Thus, each slide contained two elongated sections of 6 mm length. Slides were stained with hematoxylin and eosin.
Using the video camera and the lens number X5 of the light microscope, the resulting field appearing on the screen has a length of 0.953 mm. When the first 6 mm long section was examined from the left to the right, the first and second fields were ignored and the third and fourth fields were captured for analysis by the image analyzer. Each field has the length of 0.953 mm. With the help of the screen mouse, the sebaceous glands within the whole field length (0.953 mm) were marked. Also, an area having the length of the whole field and the height between stratum granulosum and the upper edge of the cartilage was drawn.
The total area of the sebaceous glands (μm^2) in each examined field was calculated by the Image Analyser. We also measured the total area, which has the length of 0.953 mm and the height between stratum granulosum and the cartilage. In addition, the percentage of the area occupied by the glands was obtained. Thus, for each ear, two sections were cut and two fields from each section were analyzed. The total of the four readings was averaged and the mean standard error of the mean was calculated by the image analyzer. The results were expressed in μm^2 as the total surface of glands per field and also as percentage of the area occupied by the glands in the tissue.

[3] = system: ventral prostate, seminal vesicle and levator ani; assay: In vivo assessment of SARM effect on immature rats; parameters: species or system rat
Experimental: as §1
as §2, with “To evaluate the antiandrogenic activity, tested compounds were administered subcutaneously once daily at a dose of 0.5 mg/animal for antiandrogenitic activity or 0.2 mg/animal for androgenic activity for 7 days (SD 1 to 7). Compounds” for “Compounds”

[4] = po, 0.5 mg, per os, read-out: Prostate Rat Inh % inh (0.5 mg, per os)
[5] = read-out: Shionogi IC50 (nM), Table 4, inhibition of DHT-stimulated Shionogi cell number
[6] = po, 0.5 mg, per os, read-out: SV RAT Inh % inh (0.5 mg, per os)
[7] = sc, read-out: IN VIVO Rat s.c. (+DHT) Prostate % inhibition, s.c., 0.5 mg/animal once daily for 7 days, +DHT
[8] = read-out: Shionogi Antiandrogenic activity IC50 (nM), inhibition of DHT-stimulated Shionogi cell number
[9] = sc, read-out: IN VIVO Rat s.c. (+DHT) SV % inhibition, s.c., 0.5 mg/animal once daily for 7 days, +DHT
[10] = 0.5 mg/day s.c., DHT 1-cm length implant
[11] = 0.2 mg/day s.c., absence of exogenous androgens, immature rats

SMILES	inhibition in vivo at 0.5 mg (rat prostate; [4]) [%]	RBA human (Human Androgen Receptor) [%]	IC50 [1, 5] [nM]	Shionogi VS OH-FLU [1]	inhibition in vivo at 0.5 mg (rat seminal vesicle; [6]) [%]	inhibition in vivo at 0.01 mg [2] [%]	inhibition in vivo at 0.1 mg [2] [%]	Androgen Receptor Binding (%) Human RBA R1881 = 100 (Human Androgen Receptor)	IC50 [1, 8] [nM]	also measured
COC1CCC2C3CCC4CC(=O)CC[C@]4(C)C3CC[C@]12CCOc1cccc(C(C)(C)NCC(C)C)c1 (stereo partly shown) [EM-6628]	15	796	5.9	14	0	58.1	–	–	–	–
CCC(CC)NC(c1cccc(OCC[C@]23CCC4C(CCC5CC(=O)CC[C@@]54C)C2CC[C@@H]3O)c1)C(C)C (stereo partly shown) [EM-6446]	11	715	1	51	3	56	79	–	–	–
CCCC(NC(CC)CC)c1cccc(OCC[C@]23CCC4C(CCC5CC(=O)CC[C@@]54C)C2CCC3=O)c1 (stereo partly shown) [EM-6842]	18	451	0.4	183	27	63.8	–	–	–	–
CCC(NC1CCCC1)c1cccc(OCC[C@]23CCC4C(CCC5CC(=O)CC[C@@]54C)C2CC[C@@H]3OC)c1 (stereo partly shown) [EM-6640]	10	438	18	5.3	0	46.3	–	–	–	–
CCC(CC)N(C)C(CC)c1cccc(OCC[C@]23CCC4C5CCC(=O)C=C5CCC4C2CC[C@@H]3O)c1 (stereo partly shown) [EM-6680]	0	140	–	–	21	64.7	–	140%	1.2	inhibition in vivo at 0.5 mg (rat prostate; [7]): 0%; IN VIVO Rat (+DHT) Prostate % inhibition (per os) (rat prostate; per os, +DHT): 0 (p.o.) %; Prostate Rat Inh % inh, s.c. (rat prostate; s.c.): 0 s.c. 0%; inhibition in vivo at 0.5 mg (rat seminal vesicle; [9]): 40%; IN VIVO Rat (+DHT) SV % inhibition (per os) (rat seminal vesicle; per os, +DHT): 21%; SV RAT Inh % inh, s.c. (rat seminal vesicle; s.c.): 40%
CC(C)CNC(C)(C)c1cccc(OCC[C@]23CCC4C(CCC5CC(=O)CC[C@@]54C)C2CC[C@@H]3O)c1 (stereo partly shown) [EM-6534]	9	112	0.23	267	16	48	84	112%	0.4	–
CC(NC1CCCC1)c1cccc(OCC[C@]23CCC4C5CCC(=O)C=C5C[C@H](C)C4C2CC[C@@]3(C)O)c1 (stereo in doubt) [EM-7216]	–	–	–	–	–	–	–	77%	–	inhibition of the stimulated weight of ventral prostate (rat prostate; [10]): 28%; inhibition in vivo at 0.5 mg (rat prostate; [7]): 28%; inhibition of the stimulated weight of seminal vesicle (rat seminal vesicle; [10]): no inhibiting effect; inhibition in vivo at 0.5 mg (rat seminal vesicle; [9]): 0%; stimulation of the weight of levator ani [3, 11]: 238; stimulation of the weight of seminal vesicle [3, 11]: 200%; stimulation of the weight of ventral prostate [3, 11]: 370%; inhibition of the stimulated weight of levator ani [3, 10]: no inhibiting effect
CC[C@H](NC1CCCCC1)c1cccc(OCC[C@]23CCC4C(CCC5CC(=O)CC[C@@]54C)C2CC[C@@H]3O)c1 (stereo partly shown) [EM-6415]	14	185	1.4	29	0	52	84	230%	0.47	–
CC(C)CN1CCCCC1c1cccc(OCC[C@]23CCC4C(CCC5CC(=O)CC[C@@]54C)C2CC[C@@H]3O)c1 (stereo partly shown) [EM-6493]	15	173	3.6	16	19	44	63	92% and 173%	4.3	–
